In EP1891948A1, “Treatment of neurological and neuropsychological disorders” (Probiodrug AG, priority 2000, dated 2002):

System: WistarF/Han (WF) rats
Assay: Elevated plus maze (EPM) test after i.c.v. treatment
Assay type: in vivo
Conditions: low dose (50pmol), Fig. 6
Experimental: Animals. Male WistarF/Han (WF) rats (Central Animal Laboratory, Hannover Medical School, Hannover, Germany, see http://www.mh-hannover.de/institut/tierlabor/wf.htm for details), weighing 350-390g, were housed in a sound-proof, temperature controlled (24.0±0.5°C) room under specific pathogen free conditions with a 12/12h dark/light cycle (lights on at 07.00 with illumination level of 80 Lux). Food (Altromin lab chow pellets) and tap water were available ad libitum. Under ketamine/xylasine (100/5 mg/kg, i.p.) anesthesia, the rats were fixed in a Kopf stereotaxic frame and implanted with cannulae (Plastic One, Inc., Roanoke, VA, USA) above the lateral ventricle. All research and animal care procedures were approved by the Lower Saxony district government (Hannover, Germany) and followed principles described in the European Community's Council Directive of 24 November 1986 (86/609/EEC). […]
Elevated plus maze (EPM) testing. […] The following parameters were calculated: Total numbers of arm entries (TA); entries to closed arms (CA); entries to open arms (OA); percentage frequency of entries to open arms (%OA: OAx100/TA); total trial duration (TT): 300s; duration of stay in closed arms (closed time; CLT); percentage share of CLT in total arms-stay duration (CLTx100/AT); duration of stay in open arms (open time; OT) and percentage share of OT in total arm-stay duration (%OT: OTx100/AT). […]

Which “percentage of time spent on the open arms of the maze” value does the source give for `CCC(C)C(N)C(=O)N1CCSC1` (stereo not shown) [isoleucyl thiazolidine] here?
The value was “increased”.
